Measured values as given in patent US10882857B2, “Bicyclic compounds as ATX inhibitors” (Hoffmann-La Roche Inc., priority 2017, dated 2021).

These molecules were tested against ATX (human His-tagged) (Homo sapiens (Human), UniProt Q13822) (assay: Human ATX enzyme inhibition assay (fluorescence quenching, MR121 substrate)). Details: 30 nM ATX, 1 μM MR121 substrate, 30° C.
Format: biochemical
Experimental: Human ATX Enzyme Inhibition Assay
ATX inhibition was measured by a fluorescence quenching assay using a specifically labeled substrate analogue (MR121 substrate). To obtain this MR121 substrate, BOC and TBS protected 6-amino-hexanoic acid (R)-3-({2-[3-(2-{2-[2-(2-amino-ethoxy)-ethoxy]-ethoxy-}ethoxy)-propionylamino]-ethoxy}-hydroxy-phosphoryloxy)-2-hydroxy-propyl ester (Ferguson et al., Org Lett 2006, 8 (10), 2023) was labeled with MR121 fluorophore (CAS 185308-24-1, 1-(3-carboxypropyl)-11-ethyl-1,2,3,4,8,9,10,11-octahydro-dipyrido[3,2-b:2′,3′-i]phenoxazin-13-ium) on the free amine of the ethanolamine side and then, after deprotection, subsequently with tryptophan on the side of the aminohexanoic acid.
Assay working solutions were made as follows:
Assay buffer (50 mM Tris-HCl, 140 mM NaCl, 5 mM KCl, 1 mM CaCl2, 1 mM MgCl2, 0.01% Triton-X-100, pH 8.0;
ATX solution: ATX (human His-tagged) stock solution (1.08 mg/mL in 20 mM bicine, pH 8.5, 0.15 M NaCl, 10% glycerol, 0.3% CHAPS, 0.02% NaN3), diluted to 1.4-2.5× final concentration in assay buffer;
MR121 substrate solution: MR121 substrate stock solution (800 μM MR121 substrate in DMSO), diluted to 2-5× final concentration in assay buffer.
Test compounds (10 mM stock in DMSO, 8 μL) were obtained in 384 well sample plates (Corning Costar #3655) and diluted with 8 μL DMSO. Row-wise serial dilutions were made by transferring 8 μL cpd solution to the next row up to row O. The compound and control solutions were mixed five times and 2 μL were transferred to 384 well assay plates (Corning Costar #3702). Then, 15 μL of 41.7 nM ATX solution was added (30 nM final concentration), mixed five times and then incubated for 15 minutes at 30° C. 10 μL of MR121 substrate solution was added (1 μM final concentration), mixed 30 times and then incubated for 15 minutes at 30° C.
Fluorescence was then measured every 2 minutes for 1 hour (Perkin Elmer plate: vision multimode reader); light intensity: 2.5%; exp. time: 1.4 sec, Filter: Fluo_630/690 nm) and IC50 values were calculated from these readouts.

In order of falling IC50:
1. O=C(c1cc(OCC2CCOCC2)nc(C2CC2)c1)N1Cc2ccc(C(=O)N3CCc4c(O)noc4C3)cc2C1 [Example 2, [2-[2-Cyclopropyl-6-(oxan-4-ylmethoxy)pyridine-4-carbonyl]-1,3-dihydroisoindol-5-yl]-(3-hydroxy-5,7-dihydro-4H-[1,2]oxazolo[5,4-c]pyridin-6-yl)methanone]  24 nM
2. NS(=O)(=O)C1CCN(C(=O)c2ccc3c(c2)CN(C(=O)c2cc(OCC4CCOCC4)nc(C4CC4)c2)C3)CC1 [Example 2.01, 1-[2-[2-cyclopropyl-6-(oxan-4-ylmethoxy)pyridine-4-carbonyl]-1,3-dihydroisoindole-5-carbonyl]piperidine-4-sulfonamide]  10 nM
3. O=C(c1cc(OCC2CCOCC2)nc(C2CC2)c1)N1Cc2ccc(C(=O)N3CCc4onc(O)c4C3)cc2C1 [Example 2.02, [2-[2-cyclopropyl-6-(oxan-4-ylmethoxy)pyridine-4-carbonyl]-1,3-dihydroisoindol-5-yl]-(3-hydroxy-6,7-dihydro-4H-[1,2]oxazolo[4,5-c]pyridin-5-yl)methanone]  7 nM
4. CC(C)(C)C(=O)Nc1cc(C(F)(F)F)cnc1COC(=O)N1Cc2ccc(C(=O)N3CCC(S(N)(=O)=O)CC3)cc2C1 [Example 2.03, [3-(2,2-dimethylpropanoylamino)-5-(trifluoromethyl)pyridin-2-yl]methyl 5-(4-sulfamoylpiperidine-1-carbonyl)-1,3-dihydroisoindole-2-carboxylate]  7 nM
5. CC(C)(C)C(=O)Nc1cc(C(F)(F)F)cnc1COC(=O)N1Cc2ccc(C(=O)N3CCc4c(O)noc4C3)cc2C1 [Example 2.04, [3-(2,2-dimethylpropanoylamino)-5-(trifluoromethyl)pyridin-2-yl]methyl 5-(3-hydroxy-5,7-dihydro-4H-[1,2]oxazolo[5,4-c]pyridine-6-carbonyl)-1,3-dihydroisoindole-2-carboxylate]  7 nM
6. NS(=O)(=O)C1CCN(C(=O)c2cc3c(s2)CN(C(=O)c2cc(OCC4CCOCC4)nc(C4CC4)c2)C3)CC1 [Example 3.02, 1-[5-[2-cyclopropyl-6-(oxan-4-ylmethoxy)pyridine-4-carbonyl]-4,6-dihydrothieno[2,3-c]pyrrole-2-carbonyl]piperidine-4-sulfonamide]  7 nM
7. CC(C)(C)C(=O)Nc1cc(C#N)c(Cl)cc1COC(=O)N1Cc2nc(C(=O)N3CCc4c(O)noc4C3)oc2C1 [Example 4.01, [5-chloro-4-cyano-2-(2,2-dimethylpropanoylamino)phenyl]methyl 2-(3-hydroxy-5,7-dihydro-4H-[1,2]oxazolo[5,4-c]pyridine-6-carbonyl)-4,6-dihydropyrrolo[3,4-d][1,3]oxazole-5-carboxylate]  7 nM
8. O=C(c1cc(OCC2CCOCC2)nc(C2CC2)c1)N1Cc2nc(C(=O)N3CCc4c(O)noc4C3)oc2C1 [Example 3, [2-Cyclopropyl-6-(oxan-4-ylmethoxy)pyridin-4-yl]-[2-(3-hydroxy-5,7-dihydro-4H-[1,2]oxazolo[5,4-c]pyridine-6-carbonyl)-4,6-dihydropyrrolo[3,4-d][1,3]oxazol-5-yl]methanone]  5 nM
9. CC(C)(C)C(=O)Nc1cc(C(F)(F)F)cnc1COC(=O)N1Cc2ccc(C(=O)N3CCc4onc(O)c4C3)cc2C1 [Example 2.05, [3-(2,2-dimethylpropanoylamino)-5-(trifluoromethyl)pyridin-2-yl]methyl 5-(3-hydroxy-6,7-dihydro-4H-[1,2]oxazolo[4,5-c]pyridine-5-carbonyl)-1,3-dihydroisoindole-2-carboxylate]  4 nM
10. O=C(c1cc(OCC2CCOCC2)nc(C2CC2)c1)N1CCc2cc(C(=O)N3CCc4[nH]nnc4C3)ccc2C1 [Example 1, [2-[2-Cyclopropyl-6-(oxan-4-ylmethoxy)pyridine-4-carbonyl]-3,4-dihydro-1H-isoquinolin-6-yl]-(1,4,6,7-tetrahydrotriazolo[4,5-c]pyridin-5-yl)methanone]  2 nM
11. O=C(c1cc(OCC2CCOCC2)nc(C2CC2)c1)N1Cc2nc(C(=O)N3CCc4[nH]nnc4C3)oc2C1 [Example 1.01, [2-cyclopropyl-6-(oxan-4-ylmethoxy)pyridin-4-yl]-[2-(1,4,6,7-tetrahydrotriazolo[4,5-c]pyridine-5-carbonyl)-4,6-dihydropyrrolo[3,4-d][1,3]oxazol-5-yl]methanone]  2 nM
12. NS(=O)(=O)C1CCN(C(=O)c2nc3c(s2)CN(C(=O)c2cc(OCC4CCOCC4)nc(C4CC4)c2)C3)CC1 [Example 3.01, 1-[5-[2-cyclopropyl-6-(oxan-4-ylmethoxy)pyridine-4-carbonyl]-4,6-dihydropyrrolo[3,4-d][1,3]thiazole-2-carbonyl]piperidine-4-sulfonamide]  2 nM
13. CC(C)(C)C(=O)Nc1cc(C(F)(F)F)cnc1COC(=O)N1Cc2nc(C(=O)N3CCC(S(N)(=O)=O)CC3)oc2C1 [Example 2.06, [3-(2,2-dimethylpropanoylamino)-5-(trifluoromethyl)pyridin-2-yl]methyl 2-(4-sulfamoylpiperidine-1-carbonyl)-4,6-dihydropyrrolo[3,4-d][1,3]oxazole-5-carboxylate]  1 nM
14. CC(C)(C)C(=O)Nc1cc(C(F)(F)F)cnc1COC(=O)N1Cc2nc(C(=O)N3CCc4[nH]nnc4C3)oc2C1 [Example 4, [3-(2,2-Dimethylpropanoylamino)-5-(trifluoromethyl)pyridin-2-yl]methyl 2-(1,4,6,7-tetrahydrotriazolo[4,5-c]pyridine-5-carbonyl)-4,6-dihydropyrrolo[3,4-d][1,3]oxazole-5-carboxylate]  1 nM
15. CC(C)(C)C(=O)Nc1cc(C(F)(F)F)cnc1COC(=O)N1Cc2cc(C(=O)N3CCC(S(N)(=O)=O)CC3)sc2C1 [Example 4.02, [3-(2,2-Dimethylpropanoylamino)-5-(trifluoromethyl)pyridin-2-yl]methyl 2-(4-sulfamoylpiperidine-1-carbonyl)-4,6-dihydrothieno[2,3-c]pyrrole-5-carboxylate]  1 nM
